Reference: PubChem BioAssay AID1963967 (Molecular Pharmacology Branch, DTP, NCI, 2024)

Test system: 855422-203-R-J1-PDC spheroids with HUVEC/MSC, viability
Experiment: Anticancer human tumor 855422-203-R-J1-PDC patient-derived bladder carcinoma cell line growth inhibition [PI3K]
Settings: for IC50: curve of first compound; for viability, T/C: stronger effect = lower value
Method in brief: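 Tumor cells grown as multi-cell spheroids with HUVEC endothelial cells and MSC fibroblast-like stroma were treated with targeted agents combined with inavolisib, alpelisib, duvelisib or copanlisib. Doses fell in half-log steps from near clinical Cmax, else from 10 microM. Viability was measured.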

[1] = second compound 0.00316 µM, first compound 0.0316 µM
[2] = second compound 0.00316 µM, first compound 0.1 µM
[3] = second compound 0.00316 µM, first compound 0.316 µM
[4] = second compound 0.00316 µM, first compound 1 µM
[5] = second compound 0.00316 µM, first compound 3.16 µM
[6] = second compound 0.00316 µM, first compound 10 µM
[7] = second compound 0.01 µM, first compound 0.0316 µM
[8] = second compound 0.01 µM, first compound 0.1 µM
[9] = second compound 0.01 µM, first compound 0.316 µM
[10] = second compound 0.01 µM, first compound 1 µM
[11] = second compound 0.01 µM, first compound 3.16 µM
[12] = second compound 0.01 µM, first compound 10 µM
[13] = second compound 0.0316 µM, first compound 0.0316 µM
[14] = second compound 0.0316 µM, first compound 0.1 µM
[15] = second compound 0.0316 µM, first compound 0.316 µM
[16] = second compound 0.0316 µM, first compound 1 µM
[17] = second compound 0.0316 µM, first compound 3.16 µM
[18] = second compound 0.0316 µM, first compound 10 µM
[19] = second compound 0.1 µM, first compound 0.0316 µM
[20] = second compound 0.1 µM, first compound 0.1 µM
[21] = second compound 0.1 µM, first compound 0.316 µM
[22] = second compound 0.1 µM, first compound 1 µM
[23] = second compound 0.1 µM, first compound 3.16 µM
[24] = second compound 0.1 µM, first compound 10 µM
[25] = second compound 0.316 µM, first compound 0.0316 µM
[26] = second compound 0.316 µM, first compound 0.1 µM
[27] = second compound 0.316 µM, first compound 0.316 µM
[28] = second compound 0.316 µM, first compound 1 µM
[29] = second compound 0.316 µM, first compound 3.16 µM
[30] = second compound 0.316 µM, first compound 10 µM
[31] = second compound 1 µM, first compound 0.0316 µM
[32] = second compound 1 µM, first compound 0.1 µM
[33] = second compound 1 µM, first compound 0.316 µM
[34] = second compound 1 µM, first compound 1 µM
[35] = second compound 1 µM, first compound 3.16 µM
[36] = second compound 1 µM, first compound 10 µM
[37] = second compound 3.16 µM, first compound 0.0316 µM
[38] = second compound 3.16 µM, first compound 0.1 µM
[39] = second compound 10 µM, first compound 0.0316 µM
[40] = second compound 10 µM, first compound 0.1 µM
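Further: agents incubated with spheroids for one week before read-out.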
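Wherever viability, T/C is given: 100% = DMSO vehicle-treated control wells.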

Question: Which results are given for `CC1(C)CCC(Nc2ncc(C(F)(F)F)c(-c3c[nH]c4c(P(C)(C)=O)c(C#N)ccc34)n2)CN1` (stereo not drawn) + COc1c(OCCCN2CCOCC2)ccc2c3n(c(=NC(=O)c4cnc(N)nc4)nc12)CCN3?
Answer: IC50 (second compound 0.00316 µM): < 31.6 nM; IC50 (second compound 0.01 µM): < 31.6 nM; IC50 (second compound 0.0316 µM): < 31.6 nM; IC50 (second compound 0.1 µM): < 31.6 nM; IC50 (second compound 0.316 µM): < 31.6 nM; IC50 (second compound 1 µM): < 31.6 nM; viability, T/C [1]: 24.9%; viability, T/C [2]: 20.8%; viability, T/C [3]: 22.4%; viability, T/C [4]: 23.3%; viability, T/C [5]: 24.3%; viability, T/C [6]: 2.48%; viability, T/C [7]: 21.2%; viability, T/C [8]: 18.6%; viability, T/C [9]: 21.3%; viability, T/C [10]: 19.8%; viability, T/C [11]: 20.4%; viability, T/C [12]: 3.49%; viability, T/C [13]: 16.7%; viability, T/C [14]: 17.2%; viability, T/C [15]: 13.9%; viability, T/C [16]: 16.9%; viability, T/C [17]: 16.6%; viability, T/C [18]: 1.53%; viability, T/C [19]: 12.7%; viability, T/C [20]: 10.7%; viability, T/C [21]: 12.4%; viability, T/C [22]: 10.1%; viability, T/C [23]: 8.84%; viability, T/C [24]: 1.32%; viability, T/C [25]: 5.48%; viability, T/C [26]: 4.79%; viability, T/C [27]: 5.47%; viability, T/C [28]: 6.03%; viability, T/C [29]: 3.06%; viability, T/C [30]: 1.28%; viability, T/C [31]: 1.83%; viability, T/C [32]: 2.45%; viability, T/C [33]: 2.02%; viability, T/C [34]: 2.08%; viability, T/C [35]: 1.22%; viability, T/C [36]: 1.25%

Question: Which results are given for `Cn1ncnc1[C@H]1c2n[nH]c(=O)c3cc(F)cc(c23)N[C@@H]1c1ccc(F)cc1` + CC(Nc1ncnc2nc[nH]c12)c1cc2cccc(Cl)c2c(=O)n1-c1ccccc1?
Answer: IC50 (second compound 0.0316 µM): > 100 nM; IC50 (second compound 0.1 µM): > 100 nM; IC50 (second compound 0.316 µM): > 100 nM; IC50 (second compound 1 µM): > 100 nM; IC50 (second compound 3.16 µM): > 100 nM; IC50 (second compound 10 µM): > 100 nM; viability, T/C (second compound 0.0316 µM, first compound 0.000316 µM): 107%; viability, T/C (second compound 0.0316 µM, first compound 0.001 µM): 98%; viability, T/C (second compound 0.0316 µM, first compound 0.00316 µM): 106%; viability, T/C (second compound 0.0316 µM, first compound 0.01 µM): 97.8%; viability, T/C [13]: 109%; viability, T/C [14]: 100%; viability, T/C (second compound 0.1 µM, first compound 0.000316 µM): 121%; viability, T/C (second compound 0.1 µM, first compound 0.001 µM): 104%; viability, T/C (second compound 0.1 µM, first compound 0.00316 µM): 113%; viability, T/C (second compound 0.1 µM, first compound 0.01 µM): 101%; viability, T/C [19]: 111%; viability, T/C [20]: 104%; viability, T/C (second compound 0.316 µM, first compound 0.000316 µM): 106%; viability, T/C (second compound 0.316 µM, first compound 0.001 µM): 107%; viability, T/C (second compound 0.316 µM, first compound 0.00316 µM): 121%; viability, T/C (second compound 0.316 µM, first compound 0.01 µM): 102%; viability, T/C [25]: 110%; viability, T/C [26]: 107%; viability, T/C (second compound 1 µM, first compound 0.000316 µM): 106%; viability, T/C (second compound 1 µM, first compound 0.001 µM): 107%; viability, T/C (second compound 1 µM, first compound 0.00316 µM): 110%; viability, T/C (second compound 1 µM, first compound 0.01 µM): 104%; viability, T/C [31]: 104%; viability, T/C [32]: 104%; viability, T/C (second compound 3.16 µM, first compound 0.000316 µM): 96.6%; viability, T/C (second compound 3.16 µM, first compound 0.001 µM): 92%; viability, T/C (second compound 3.16 µM, first compound 0.00316 µM): 97.9%; viability, T/C (second compound 3.16 µM, first compound 0.01 µM): 105%; viability, T/C [37]: 105%; viability, T/C [38]: 104%; viability, T/C (second compound 10 µM, first compound 0.000316 µM): 88.3%; viability, T/C (second compound 10 µM, first compound 0.001 µM): 85%; viability, T/C (second compound 10 µM, first compound 0.00316 µM): 78.4%; viability, T/C (second compound 10 µM, first compound 0.01 µM): 87%; viability, T/C [39]: 89.5%; viability, T/C [40]: 82.3%

Question: What does the source list for `Cn1ncc(Cl)c1-c1cc(C(=O)NC(CN)Cc2cccc(F)c2)sc1Cl` (stereo not drawn) + CC(Nc1ncnc2nc[nH]c12)c1cc2cccc(Cl)c2c(=O)n1-c1ccccc1?
Answer: IC50 (second compound 0.0316 µM): 572 nM; IC50 (second compound 0.1 µM): 706 nM; IC50 (second compound 0.316 µM): 634 nM; IC50 (second compound 1 µM): 695 nM; IC50 (second compound 3.16 µM): 454 nM; IC50 (second compound 10 µM): 411 nM; viability, T/C [13]: 98.1%; viability, T/C [14]: 78.2%; viability, T/C [15]: 58%; viability, T/C [16]: 41.9%; viability, T/C [17]: 25.4%; viability, T/C [18]: 9.19%; viability, T/C [19]: 95.2%; viability, T/C [20]: 84.5%; viability, T/C [21]: 59.3%; viability, T/C [22]: 46.4%; viability, T/C [23]: 25.1%; viability, T/C [24]: 8.79%; viability, T/C [25]: 92.2%; viability, T/C [26]: 74.7%; viability, T/C [27]: 55.5%; viability, T/C [28]: 48.3%; viability, T/C [29]: 25.9%; viability, T/C [30]: 6.18%; viability, T/C [31]: 79.8%; viability, T/C [32]: 75.4%; viability, T/C [33]: 62.1%; viability, T/C [34]: 45%; viability, T/C [35]: 22.5%; viability, T/C [36]: 10%; viability, T/C [37]: 87.5%; viability, T/C [38]: 75.3%; viability, T/C (second compound 3.16 µM, first compound 0.316 µM): 52.4%; viability, T/C (second compound 3.16 µM, first compound 1 µM): 39.5%; viability, T/C (second compound 3.16 µM, first compound 3.16 µM): 21.9%; viability, T/C (second compound 3.16 µM, first compound 10 µM): 8.05%; viability, T/C [39]: 83.4%; viability, T/C [40]: 71.8%; viability, T/C (second compound 10 µM, first compound 0.316 µM): 52.5%; viability, T/C (second compound 10 µM, first compound 1 µM): 36.9%; viability, T/C (second compound 10 µM, first compound 3.16 µM): 20.1%; viability, T/C (second compound 10 µM, first compound 10 µM): 5.58%

Question: Which results are given for `Cn1ncc(Cl)c1-c1cc(C(=O)NC(CN)Cc2cccc(F)c2)sc1Cl` (stereo not drawn) + CC(Nc1ccc2c(c1)OCCn1cc(N3C(=O)OCC3C(F)F)nc1-2)C(N)=O?
Answer: IC50 (second compound 0.00316 µM): 614 nM; IC50 (second compound 0.01 µM): 707 nM; IC50 (second compound 0.0316 µM): 561 nM; IC50 (second compound 0.1 µM): 257 nM; IC50 (second compound 0.316 µM): 35.2 nM; IC50 (second compound 1 µM): < 31.6 nM; viability, T/C [1]: 88%; viability, T/C [2]: 65.1%; viability, T/C [3]: 60.5%; viability, T/C [4]: 43.6%; viability, T/C [5]: 31.9%; viability, T/C [6]: 6.62%; viability, T/C [7]: 89.3%; viability, T/C [8]: 72.4%; viability, T/C [9]: 64.7%; viability, T/C [10]: 44.9%; viability, T/C [11]: 25.7%; viability, T/C [12]: 8.23%; viability, T/C [13]: 75.7%; viability, T/C [14]: 62.9%; viability, T/C [15]: 56.5%; viability, T/C [16]: 47.7%; viability, T/C [17]: 22.9%; viability, T/C [18]: 5.89%; viability, T/C [19]: 64.5%; viability, T/C [20]: 61.6%; viability, T/C [21]: 40.3%; viability, T/C [22]: 42.9%; viability, T/C [23]: 19.8%; viability, T/C [24]: 3.42%; viability, T/C [25]: 50.2%; viability, T/C [26]: 50.2%; viability, T/C [27]: 34.2%; viability, T/C [28]: 39.2%; viability, T/C [29]: 16.1%; viability, T/C [30]: 1.76%; viability, T/C [31]: 38.1%; viability, T/C [32]: 29%; viability, T/C [33]: 32.4%; viability, T/C [34]: 24.4%; viability, T/C [35]: 12.2%; viability, T/C [36]: 1.17%
